pKi: −log10 of the molar value.
What was measured:
[1] = target: T1, Aurora B (Homo sapiens, UniProt Q96GD4); assay: Aurora B enzyme inhibition (time-resolved fluorescence, histone H3 peptide); assay type: biochemical; settings: 1 mM ATP
T1 construct: Active Aurora B enzyme (recombinant residues 1-344)
Summary of the method: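 Recombinant Aurora B (residues 1-344) with GST-INCENP phosphorylated biotinylated histone H3 (1-21) peptide at 1 mM ATP in HEPES pH 7.4 with MgCl2, orthovanadate and Triton X-100 for 1 h. After EDTA stop, the phosphopeptide was detected by TR-FRET (Eu-cryptate anti-phospho-H3 / SA-APC, 665/615 nm ratio). IC50 from an exponential fit.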

[2] = target: T2, Aurora A (Homo sapiens, UniProt O14965); assay: Aurora A enzyme inhibition (time-resolved fluorescence, STK substrate-2); assay type: biochemical; settings: 1 mM ATP
T2 sequence (O14965 1-403): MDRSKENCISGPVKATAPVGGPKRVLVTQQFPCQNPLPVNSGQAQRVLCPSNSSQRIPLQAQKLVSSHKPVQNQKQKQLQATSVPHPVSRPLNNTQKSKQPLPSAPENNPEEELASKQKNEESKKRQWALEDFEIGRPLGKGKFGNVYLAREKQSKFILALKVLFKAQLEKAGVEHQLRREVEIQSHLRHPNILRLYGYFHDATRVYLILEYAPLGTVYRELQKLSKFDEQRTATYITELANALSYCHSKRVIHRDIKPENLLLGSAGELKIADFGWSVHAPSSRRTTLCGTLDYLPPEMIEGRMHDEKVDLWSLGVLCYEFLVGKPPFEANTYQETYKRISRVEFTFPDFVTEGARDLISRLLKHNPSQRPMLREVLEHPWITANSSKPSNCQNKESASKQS
Summary of the method: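 Active enzyme incubated 1 h with biotinylated STK substrate-2, 1 mM ATP and inhibitor in Hepes pH 7.4 with MgCl2, orthovanadate and Triton X-100. EDTA stop; phosphopeptide detected by Eu-cryptate anti-phospho-STK/SA-XL665 TR-FRET (665/615 nm ratio); IC50 by exponential fit.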

[3] = target: KDR (Homo sapiens, UniProt P35968); assay: KDR HTRF in vitro kinase assay; assay type: biochemical; design: purified enzyme (His6-KDR 789-1354, MW 63 kD); His6 (N); settings: 1 mM ATP; read-out: KDR enzyme inhibition data (Ki)
KDR, sequence (P35968 789-1354): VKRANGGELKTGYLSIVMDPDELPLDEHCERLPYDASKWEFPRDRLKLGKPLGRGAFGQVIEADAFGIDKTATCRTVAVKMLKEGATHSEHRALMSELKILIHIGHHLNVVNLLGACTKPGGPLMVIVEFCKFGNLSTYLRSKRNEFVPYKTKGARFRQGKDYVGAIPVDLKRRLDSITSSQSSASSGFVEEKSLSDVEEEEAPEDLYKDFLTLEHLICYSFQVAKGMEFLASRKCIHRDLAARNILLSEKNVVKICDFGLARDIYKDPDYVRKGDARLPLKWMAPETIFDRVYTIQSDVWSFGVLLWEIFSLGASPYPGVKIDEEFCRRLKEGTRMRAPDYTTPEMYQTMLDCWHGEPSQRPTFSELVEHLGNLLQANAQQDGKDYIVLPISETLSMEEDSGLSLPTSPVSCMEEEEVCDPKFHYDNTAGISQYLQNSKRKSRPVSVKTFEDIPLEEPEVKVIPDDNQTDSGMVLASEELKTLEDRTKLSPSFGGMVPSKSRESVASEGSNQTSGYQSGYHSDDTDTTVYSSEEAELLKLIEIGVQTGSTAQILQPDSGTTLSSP
Summary of the method: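 His6-KDR 789-1354 (7 ng/well) with 0.5 μM biotinylated peptide substrate and 1 mM ATP in HEPES pH 7.1, MgCl2/MnCl2, 60 min at room temperature. EDTA-quenched, detected by streptavidin-XL-665 plus Eu-kryptate anti-phosphotyrosine HTRF after 3 h; IC50 from 620/665 nm ratio.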

[4] = system: NCI-H1299 cells; assay: Induction of polyploidy in H1299; assay type: cell-based, Human; settings: Homo sapiens; NCI-H1299, 48 hours; read-out: EC15 (concentration of inhibitor necessary to induce polyploidy in 15% of cells)
Summary of the method: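 NCI-H1299 cells in RPMI 1640/10% FCS were treated with inhibitor concentrations in duplicate for 48 h at 37 C, then formalin-fixed and Hoechst-stained. Nuclear area was measured by high-content imaging, with polyploid (≥4N) defined as >750 μ^2. EC15 was derived by least-squares fit of log dose-response.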

T1 sequence (Q96GD4 whole entry, the tested form may be a part): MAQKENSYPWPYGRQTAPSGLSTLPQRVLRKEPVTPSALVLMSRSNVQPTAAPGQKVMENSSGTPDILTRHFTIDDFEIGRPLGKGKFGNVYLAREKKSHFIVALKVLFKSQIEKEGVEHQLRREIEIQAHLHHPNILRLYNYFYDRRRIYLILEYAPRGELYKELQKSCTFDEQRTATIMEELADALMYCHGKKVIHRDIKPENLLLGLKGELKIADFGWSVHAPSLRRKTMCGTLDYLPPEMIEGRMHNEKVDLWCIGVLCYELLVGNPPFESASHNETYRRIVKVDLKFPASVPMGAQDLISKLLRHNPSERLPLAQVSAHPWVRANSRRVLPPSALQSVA
T1 sequence (Q9NQS7 826-918 partner limits assumed): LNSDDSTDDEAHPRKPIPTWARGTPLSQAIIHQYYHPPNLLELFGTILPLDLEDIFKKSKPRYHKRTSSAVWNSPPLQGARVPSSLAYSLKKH

| SMILES | pKi [1] | pKi [2] | pKi [3] | EC15 [4] |
| --- | --- | --- | --- | --- |
| NC(=O)[C@@H]1[C@H](Nc2nc(Nc3cnn(Cc4ccc(Cl)cc4)c3)ncc2Cl)[C@H]2C=C[C@@H]1C2 [Example 162, (1S,2S,3R,4R)-3-[(5-chloro-2-{[1-(4-chlorobenzyl)-1H-pyrazol-4-yl]amino}pyrimidin-4-yl)amino]bicyclo[2.2.1]hept-5-ene-2-carboxamide] | > 7.00 | > 7.00 | > 7.00 | < 100 nM |
| Cn1cc(Nc2ncc(Cl)c(N[C@H]3[C@@H](C(N)=O)C[C@H]4C[C@@H]3C4(C)C)n2)cn1 [Example 165, (1R,2R,3S,5R)-2-({5-chloro-2-[(1-methyl-1H-pyrazol-4-yl)amino]pyrimidin-4-yl}amino)-6,6-dimethylbicyclo[3.1.1]heptane-3-carboxamide] | > 7.00 | > 7.00 | > 7.00 | < 100 nM |
| Cn1cc(Nc2ncc(C(F)(F)F)c(N[C@H]3[C@@H](C(N)=O)C[C@H]4C[C@@H]3C4(C)C)n2)cn1 [Example 167, (1R,2R,3S,5R)-6,6-dimethyl-2-({2-[(1-methyl-1H-pyrazol-4-yl)amino]-5-(trifluoromethyl)pyrimidin-4-yl}amino)bicyclo[3.1.1]heptane-3-carboxamide] | > 7.00 | > 7.00 | > 7.00 | < 100 nM |
| CCn1cc(Nc2ncc(C(F)(F)F)c(N[C@H]3[C@@H](C(N)=O)C[C@H]4C[C@@H]3C4(C)C)n2)cn1 [Example 168, (1R,2R,3S,5R)-2-({2-[(1-ethyl-1H-pyrazol-4-yl)amino]-5-(trifluoromethyl)pyrimidin-4-yl}amino)-6,6-dimethylbicyclo[3.1.1]heptane-3-carboxamide] | > 7.00 | > 7.00 | > 7.00 | < 100 nM |
| Cc1c(Nc2ncc(Cl)c(N[C@H]3[C@@H](C(N)=O)[C@@H]4C=C[C@H]3C4)n2)cnn1C [Example 169, (1S,2S,3R,4R)-3-({5-chloro-2-[(1,5-dimethyl-1H-pyrazol-4-yl)amino]pyrimidin-4-yl}amino)bicyclo[2.2.1]hept-5-ene-2-carboxamide] | > 7.00 | > 7.00 | > 7.00 | < 100 nM |
| Cc1c(Nc2ncc(Br)c(N[C@H]3[C@@H](C(N)=O)[C@@H]4C=C[C@H]3C4)n2)cnn1C [Example 170, (1S,2S,3R,4R)-3-({5-bromo-2-[(1,5-dimethyl-1H-pyrazol-4-yl)amino]pyrimidin-4-yl}amino)bicyclo[2.2.1]hept-5-ene-2-carboxamide] | > 7.00 | > 7.00 | > 7.00 | < 100 nM |
| NC(=O)[C@@H]1[C@H](Nc2nc(Nc3cnn(Cc4ccccc4Cl)c3)ncc2Br)[C@H]2C=C[C@@H]1C2 [Example 171, (1S,2S,3R,4R)-3-[(5-bromo-2-{[1-(2-chlorobenzyl)-1H-pyrazol-4-yl]amino}pyrimidin-4-yl)amino]bicyclo[2.2.1]hept-5-ene-2-carboxamide] | > 7.00 | > 7.00 | > 7.00 | < 100 nM |
| NC(=O)[C@@H]1[C@H](Nc2nc(Nc3cnn(Cc4ccc(Cl)cc4)c3)ncc2Br)[C@H]2C=C[C@@H]1C2 [Example 172, (1S,2S,3R,4R)-3-[(5-bromo-2-{[1-(4-chlorobenzyl)-1H-pyrazol-4-yl]amino}pyrimidin-4-yl)amino]bicyclo[2.2.1]hept-5-ene-2-carboxamide] | > 7.00 | > 7.00 | > 7.00 | < 100 nM |
| NC(=O)[C@@H]1[C@H](Nc2nc(Nc3cnn(-c4ccccc4)c3)ncc2Br)[C@H]2C=C[C@@H]1C2 [Example 173, (1S,2S,3R,4R)-3-({5-bromo-2-[(1-phenyl-1H-pyrazol-4-yl)amino]pyrimidin-4-yl}amino)bicyclo[2.2.1]hept-5-ene-2-carboxamide] | > 7.00 | > 7.00 | > 7.00 | < 100 nM |
| NC(=O)[C@@H]1[C@H](Nc2nc(Nc3cnn(-c4ccccc4)c3)ncc2Cl)[C@H]2C=C[C@@H]1C2 [Example 174, (1S,2S,3R,4R)-3-({5-chloro-2-[(1-phenyl-1H-pyrazol-4-yl)amino]pyrimidin-4-yl}amino)bicyclo[2.2.1]hept-5-ene-2-carboxamide] | > 7.00 | > 7.00 | > 7.00 | < 100 nM |
| Cc1cccc(Cn2cc(Nc3ncc(Cl)c(N[C@H]4[C@@H](C(N)=O)[C@@H]5C=C[C@H]4C5)n3)cn2)c1 [Example 178, (1S,2S,3R,4R)-3-[(5-chloro-2-{[1-(3-methylbenzyl)-1H-pyrazol-4-yl]amino}pyrimidin-4-yl)amino]bicyclo[2.2.1]hept-5-ene-2-carboxamide] | > 7.00 | > 7.00 | > 7.00 | < 100 nM |
| NC(=O)[C@@H]1[C@H](Nc2nc(Nc3cnn(Cc4ccc5ccccc5c4)c3)ncc2Cl)[C@H]2C=C[C@@H]1C2 [Example 179, (1S,2S,3R,4R)-3-[(5-chloro-2-{[1-(2-naphthylmethyl)-1H-pyrazol-4-yl]amino}pyrimidin-4-yl)amino]bicyclo[2.2.1]hept-5-ene-2-carboxamide] | > 7.00 | > 7.00 | > 7.00 | < 100 nM |

Second part, led by results:

| pKi [1] | pKi [2] | pKi [3] | SMILES | EC15 [4] |
| --- | --- | --- | --- | --- |
| > 7.00 | > 7.00 | > 7.00 | COc1cccc(CCn2cc(Nc3ncc(Cl)c(N[C@H]4[C@@H](C(N)=O)[C@@H]5C=C[C@H]4C5)n3)cn2)c1 [Example 154, (1S,2S,3R,4R)-3-{[5-chloro-2-({1-[2-(3-methoxyphenyl)ethyl]-1H-pyrazol-4-yl}amino)pyrimidin-4-yl]amino}bicyclo[2.2.1]hept-5-ene-2-carboxamide] | < 100 nM |
| > 7.00 | > 7.00 | > 7.00 | COc1cccc(Cn2cc(Nc3ncc(Cl)c(N[C@H]4[C@@H](C(N)=O)[C@@H]5C=C[C@H]4C5)n3)cn2)c1 [Example 155, (1S,2S,3R,4R)-3-[(5-chloro-2-{[1-(3-methoxybenzyl)-1H-pyrazol-4-yl]amino}pyrimidin-4-yl)amino]bicyclo[2.2.1]hept-5-ene-2-carboxamide] | < 100 nM |
| > 7.00 | > 7.00 | > 7.00 | NC(=O)[C@@H]1[C@H](Nc2nc(Nc3cnn(Cc4cccc(Cl)c4)c3)ncc2Cl)[C@H]2C=C[C@@H]1C2 [Example 157, (1S,2S,3R,4R)-3-[(5-chloro-2-{[1-(3-chlorobenzyl)-1H-pyrazol-4-yl]amino}pyrimidin-4-yl)amino]bicyclo[2.2.1]hept-5-ene-2-carboxamide] | < 100 nM |
| > 7.00 | > 7.00 | > 7.00 | NC(=O)[C@@H]1[C@H](Nc2nc(Nc3cnn(CCc4cccc(Cl)c4)c3)ncc2Cl)[C@H]2C=C[C@@H]1C2 [Example 158, (1S,2S,3R,4R)-3-{[5-chloro-2-({1-[2-(3-chlorophenyl)ethyl]-1H-pyrazol-4-yl}amino)pyrimidin-4-yl]amino}bicyclo[2.2.1]hept-5-ene-2-carboxamide] | < 100 nM |
| > 7.00 | > 7.00 | > 7.00 | COc1cccc(Cn2cc(Nc3ncc(Br)c(N[C@H]4[C@@H](C(N)=O)[C@@H]5C=C[C@H]4C5)n3)cn2)c1 [Example 159, (1S,2S,3R,4R)-3-[(5-bromo-2-{[1-(3-methoxybenzyl)-1H-pyrazol-4-yl]amino}pyrimidin-4-yl)amino]bicyclo[2.2.1]hept-5-ene-2-carboxamide] | < 100 nM |
| > 7.00 | > 7.00 | > 7.00 | COc1cccc(CCn2cc(Nc3ncc(Br)c(N[C@H]4[C@@H](C(N)=O)[C@@H]5C=C[C@H]4C5)n3)cn2)c1 [Example 160, (1S,2S,3R,4R)-3-{[5-bromo-2-({1-[2-(3-methoxyphenyl)ethyl]-1H-pyrazol-4-yl}amino)pyrimidin-4-yl]amino}bicyclo[2.2.1]hept-5-ene-2-carboxamide] | < 100 nM |
| > 7.00 | > 7.00 | > 7.00 | NC(=O)[C@@H]1[C@H](Nc2nc(Nc3cnn(Cc4ccccc4Cl)c3)ncc2Cl)[C@H]2C=C[C@@H]1C2 [Example 161, (1S,2S,3R,4R)-3-[(5-chloro-2-{[1-(2-chlorobenzyl)-1H-pyrazol-4-yl]amino}pyrimidin-4-yl)amino]bicyclo[2.2.1]hept-5-ene-2-carboxamide] | < 100 nM |

— US8426408B2, “Pyrimidine inhibitors of kinases” (AbbVie Inc., priority 2009, dated 2013)
